Laboratory results from article PMC5478686, “Direct Anandamide Activation of TRPV1 Produces Divergent Calcium and Current Responses” (Frontiers in Molecular Neuroscience, 2017).
Values belong to the compound of their own block, whether it stands above or below them.

Legend:
TRPV1 [1] = biological target: T1, TRPV1 (Rattus norvegicus, UniProt O35433); assay: Ratiometric Fura-2 calcium imaging in dissociated nodose ganglion (vagal afferent) neurons; assay type: cell-based; settings: for effect on AEA-induced increase in cytosolic calcium: AEA 10 μM; for effect on CAP-induced increase in cytosolic calcium: CAP 100 nM
T1 construct: endogenous in cells; host or cells: dissociated nodose ganglion neurons from male Sprague Dawley rats (primary culture, used within 24 h)
T1 sequence (O35433 whole entry): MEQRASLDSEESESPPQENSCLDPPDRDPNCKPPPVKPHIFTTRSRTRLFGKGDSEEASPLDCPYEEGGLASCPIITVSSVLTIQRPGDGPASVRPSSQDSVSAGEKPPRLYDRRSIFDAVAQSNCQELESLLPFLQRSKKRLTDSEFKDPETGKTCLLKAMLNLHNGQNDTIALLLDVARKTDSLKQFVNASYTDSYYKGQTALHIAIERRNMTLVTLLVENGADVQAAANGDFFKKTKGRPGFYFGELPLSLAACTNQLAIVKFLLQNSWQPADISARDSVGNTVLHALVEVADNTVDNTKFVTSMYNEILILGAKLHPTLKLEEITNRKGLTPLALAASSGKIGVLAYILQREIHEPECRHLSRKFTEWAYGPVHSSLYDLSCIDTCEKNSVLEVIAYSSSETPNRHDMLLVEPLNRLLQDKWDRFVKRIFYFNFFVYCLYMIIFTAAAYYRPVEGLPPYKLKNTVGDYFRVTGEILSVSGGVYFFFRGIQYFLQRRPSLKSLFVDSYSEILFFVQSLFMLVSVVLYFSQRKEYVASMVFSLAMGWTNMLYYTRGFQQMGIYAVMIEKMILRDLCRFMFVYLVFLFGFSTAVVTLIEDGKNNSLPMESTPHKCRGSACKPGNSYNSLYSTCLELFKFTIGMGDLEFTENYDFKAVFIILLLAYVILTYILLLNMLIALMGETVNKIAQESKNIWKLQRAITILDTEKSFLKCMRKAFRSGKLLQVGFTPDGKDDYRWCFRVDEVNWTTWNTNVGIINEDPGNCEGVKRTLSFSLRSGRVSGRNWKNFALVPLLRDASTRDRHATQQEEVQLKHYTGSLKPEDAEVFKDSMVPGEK
Method: (§1) Nodose ganglia were isolated bilaterally from rats and mice under a deep plane of anesthesia (Ketamine, 25 mg/100 g; with Xylazine, 2.5 mg/100 g) using aseptic surgical conditions previously reported (Lancaster and Weinreich, [2001]; Simasko et al., [2002]). Following a midline incision in the neck, the musculature was retracted and blunt dissection techniques were used to dissociate the vagal trunk from the common carotid artery. High-magnification optics (10–100× dissecting scope; Leica Microsystems, Buffalo Grove, IL, USA) were utilized to visualize the nodose ganglia and facilitate complete removal. Once isolated, nodose ganglia were desheathed and digested in Ca^2+/Mg^2+ free Hank’s Balanced Salt Solution containing 1 mg/mL of both Dispase II (Hoffmann La Roche) and Collagenase Type 1A (Sigma Aldrich; 90 min at 37°C in 95% air/5% CO2). Neurons were dispersed by gentle trituration through silicanized pipettes, and then washed in Dulbecco’s Modified Eagle’s Medium (DMEM) supplemented with 10% fetal bovine serum (FBS) and 1% penicillin-streptomycin. Dispersed cells were plated onto poly-lysine coated coverslips and maintained in DMEM+10% FBS (37°C in 95% air/5% CO2). Measurements were made within 24 h of isolation.
Intracellular calcium measurements were made with the fluorescent Ca^2+ indicator Fura-2 AM (Molecular Probes, Eugene, OR, USA). Manipulations were made at room temperature in a physiological saline bath (in mM: 140 NaCl, 5 KCl, 2 CaCl2, 1 MgCl2, 6 glucose, 10 HEPES with pH adjusted to 7.4 with NaOH). High K^+ bath (HiK) had 55 mM KCl with an equimolar reduction of NaCl to 90 mM. Neurons on coverslips were loaded with 1 μM Fura-2-AM for 1 h followed by a 15 min wash for de-esterification. COS-7 cells on coverslips were loaded with 1 μM Fura-2-AM for 20 min followed by a 10 min was for de-esterification. Coverslips were mounted into a closed chamber and constantly perfused with physiological bath. Fluorescence was collected using a Nikon Eclipse Ti inverted microscope (Nikon Instruments Inc., Melville, NY, USA) with 40× oil immersion objective, and an Andor Zyla sCMOS digital camera (Andor, South Windsor, CT, USA). For COS-7 cell experiments, TRPV1-GFP+ cells were identified by imaging using an EGFP filter cube (Nikon) prior to Fura-2 imaging. Cells containing Fura-2 were alternatively excited with 340 nm and 380 nm light and fluorescence monitored at 510 nm. Data points were collected with MetaFluor software at 6 s time points. Ratios of fluorescence intensity were converted to Ca^2+ concentrations with a standard curve. Peak calcium responses were quantified, analyzed and compared statistically.
For each experiment, data were collected from three to four nodose ganglion cell cultures or plating of the clonal cells (COS-7). When possible, protocols were designed to be within subject and analyzed using repeated measures ANOVA followed by post hoc comparisons against control. Otherwise unpaired T-tests were used to compare between groups. Parameters of dose-response relationships (EC50, slope, maximum) were determined by sigmoid fit of the data. For antagonist studies (ruthenium red (RR), etc.) all neurons received each treatment and were compared using within subject t-tests. Data are expressed as the average ± SEM. Statistical analysis was performed using SigmaStat software (Systat Software Inc., San Jose, CA, USA).

TRPV1 [2] = biological target: T1, TRPV1; assay: Whole-cell patch-clamp current recordings in dissociated nodose ganglion neurons; assay type: cell-based
Method: as §1
Liquid junction potentials were not corrected.

[3] = tested on: T2, recombinant rat TRPV1 (TRPV1-GFP); assay: Whole-cell patch-clamp in HEK293 cells transfected with TRPV1-GFP; assay type: cell-based; settings: for current reversal potential: current-voltage plots, n = 9 cells
T2 construct: expressed in transfected cells; host or cells: HEK293 cells (ATCC), transient transfection with lipofectamine 2000
Method: (§2) To generate TRPV1-GFP, the full-length rat TRPV1 coding region (NCBI accession number NM_031982.1) without stop codon was PCR amplified from nodose ganglion cDNA using the primers below and inserted into the HindIII and EcoRI sites of pEGFP-N1 (Clontech).
Clonal COS-7 cells (ATCC® Manassas, VA, USA) were plated on glass coverslips at a density of 250,000 cells per well of a 6-well tissue culture plate. HEK293 cells (ATCC® Manassas, VA, USA) were plated on glass coverslips at a density of 50,000 cells per well of a 12-well plate. COS-7 and HEK293 cells were maintained in DMEM (Invitrogen), 10% FCS (Atlanta Biologicals), 25 units/ml penicillin and 25 μg/ml streptomycin (Sigma). Approximately 24 h after plating, media was replaced with DMEM, 10% FCS without pen/strep and cells were transiently transfected overnight. COS-7 cells were transfected with 2 μg of TRPV1-GFP and 2.4 μl lipofectamine 2000 (Invitrogen) per well. HEK293 cells were transfected with 1 μg of TRPV1-GFP and 1.2 μl lipofectamine 2000 per well. COS-7 cells were used for calcium imaging and HEK293 cells were used for electrophysiological recordings 1–2 days following transfection.
Whole cell recordings were performed on dissociated nodose ganglion neurons or transfected HEK293 cells using an inverted Olympus IX50 microscope and on NTS neurons contained in horizontal brainstem slices using an upright Nikon FN1 microscope. For HEK293 cell experiments, TRPV1-GFP+ cells were identified visually using 488 nm light illuminations prior to patching. […]
Whole cell currents taken from isolated nodose ganglion cells or transfected HEK 293 cells were normalized to the membrane capacitance to control for variability in cell size. […] For brainstem slice recordings the digitized waveforms of synaptic events were analyzed using an event detection and analysis program (MiniAnalysis, Synaptosoft, Decatur, GA, USA) for all quantal synaptic currents and Clampfit 10 (Molecular Devices) for all ST-stimulated currents. All events >10 pA were counted for frequency values. […]

second-order NTS neurons = assay: Spontaneous glutamate release (sEPSCs) onto second-order NTS neurons in horizontal brainstem slices; assay type: cell-based, rat
[4] = tested on: vagal afferent neurons taken from TRPV1 KO mice; assay: Fura-2 calcium imaging in vagal afferent neurons from TRPV1 KO mice; assay type: cell-based, mouse; settings: any concentration tested, n = 15
Method: Male Sprague Dawley rats (120–250 g, Simonsen Laboratories) and male TRPV1 knockout mice (TRPV−/−) (20–30 g) (B6.129X1-Trpv1^tm1Jul/J, Jackson Laboratories) were used under procedures approved by the IACUC at Washington State University. Animals were housed under 12 h light/12 h dark conditions and fed standard pellet chow ad libitum. This study was carried out in accordance with the recommendations of the Guide for the Care and Use of Laboratory Animals, as drafted, updated and published by National Research Council. […]
(§3) Intracellular calcium measurements were made with the fluorescent Ca^2+ indicator Fura-2 AM (Molecular Probes, Eugene, OR, USA). […] Fluorescence was collected using a Nikon Eclipse Ti inverted microscope (Nikon Instruments Inc., Melville, NY, USA) with 40× oil immersion objective, and an Andor Zyla sCMOS digital camera (Andor, South Windsor, CT, USA). […] Cells containing Fura-2 were alternatively excited with 340 nm and 380 nm light and fluorescence monitored at 510 nm. […] Ratios of fluorescence intensity were converted to Ca^2+ concentrations with a standard curve. Peak calcium responses were quantified, analyzed and compared statistically.

[5] = tested on: recombinant rat TRPV1 (TRPV1-GFP); assay: Fura-2 calcium imaging in COS-7 cells transfected with TRPV1-GFP; assay type: cell-based; settings: COS-7 TRPV1-GFP; AEA n = 453 cells, CAP n = 492 cells
Method: as §2
Clonal COS-7 cells (ATCC® Manassas, VA, USA) were plated on glass coverslips at a density of 250,000 cells per well of a 6-well tissue culture plate. HEK293 cells (ATCC® Manassas, VA, USA) were plated on glass coverslips at a density of 50,000 cells per well of a 12-well plate. COS-7 and HEK293 cells were maintained in DMEM (Invitrogen), 10% FCS (Atlanta Biologicals), 25 units/ml penicillin and 25 μg/ml streptomycin (Sigma). […]
as §3

[6] = CAP 1 μM bath application, n = 13

SMILES: COc1cccc(NC(=O)/C=C/c2ccc(Cl)cc2)c1 [SB366791]
effect on AEA-induced increase in cytosolic calcium (TRPV1 [1]; SB366791 10 μM pretreatment): eliminated | effect on CAP-induced increase in cytosolic calcium (TRPV1 [1]; SB366791 10 μM pretreatment): eliminated

effect of removal of bath calcium on average amplitude of induced current (TRPV1 [2]; saturating CAP 10 μM, bath calcium 2 mM vs calcium free, n = 8): did not change
SMILES: COc1cc(CNC(=O)CCCC/C=C/C(C)C)ccc1O [CAP, capsaicin]
current reversal potential [3]: 5 mV | change of sEPSC event amplitude or decay kinetics (second-order NTS neurons; [6]): no significant changes | change of spontaneous glutamate release (sEPSC frequency) (second-order NTS neurons; [6]): dramatic increase

SMILES: CCCCC/C=C\C/C=C\C/C=C\C/C=C\CCCC(=O)NCCO [AEA, anandamide]
EC50 (TRPV1 [1]; cultured vagal afferent neurons, Fura-2, sigmoid fit, AM251 present for AEA, read-out: EC50 for Calcium (peak cytosolic calcium)): 1950 ± 360 nM | calcium response to 1st AEA exposure (time matched control) (TRPV1 [1]; repeated AEA, 1st response, N = 12): 113 ± 26 | calcium response to 2nd AEA exposure (time matched control) (TRPV1 [1]; repeated AEA, 2nd response, N = 12, P = 0.002 vs 1st): 43 ± 13 | EC50 (TRPV1 [2]): 9.8 ± 1.07 µM | effect of addition of extracellular bath calcium on initial inward current (TRPV1 [2]; AEA applied in calcium free bath, then calcium containing bath, n = 8): significantly reduced | inward current following removal of bath calcium vs standard bath (TRPV1 [2]; saturating AEA 30 μM, bath calcium 2 mM vs calcium free, n = 6): significantly larger | cytosolic calcium increase in TRPV1 KO neurons [4]: failed to produce a calcium increase | peak calcium response, smaller compared to CAP [5]: ~ 14% | current reversal potential [3]: 5 mV | current change, smaller than CAP ([3]; physiological bath, Vm = −60 mV): ~ 52% | change of any sEPSC parameter (frequency, amplitude, decay-time constant) (second-order NTS neurons; AEA 30 μM, n = 16): failed to produce a significant change

SMILES: N.N.N.N.N.N.N.N.N.N.N.N.N.N.[Cl-].[Cl-].[Cl-].[Cl-].[Cl-].[Cl-].[O-2].[O-2].[Ru+3].[Ru+3].[Ru+4] [RR, ruthenium red]
effect on AEA-induced increase in cytosolic calcium (TRPV1 [1]; RR 1 μM pretreatment): eliminated | effect on CAP-induced increase in cytosolic calcium (TRPV1 [1]; RR 1 μM pretreatment): eliminated
